The values below come from a melting point compilation (Tetko et al.).

For orientation: melting point means the temperature, or range, at which the solid turns liquid. The compound `COc1cc2nc(-c3ccccc3)nc(Cl)c2cc1OC` had a melting point of 132 to 134 °C. On to `Cc1oc2cc(O)ccc2c(=O)c1Oc1ccccc1`, for which the melting point was 235 to 237 °C. The value for `COc1ccc(C(=O)Oc2ccc(C=O)cc2OC)cc1` was 95 to 98 °C; that for `O=C(O)c1coc(-c2ccccc2Cl)n1` was 179 to 181 °C. The value for `O=Cc1csc(-c2cccc(Br)c2)n1` was 99 to 101 °C; that for `O=S(=O)(c1ccc(S)nc1)N1CCN(Cc2ccccc2)CC1` was 169 to 171 °C. In turn, `Cc1ccc(-c2csc(N)n2)s1` had a melting point of 129 to 131 °C. The value for `Cc1cc(OCC(=O)O)ccc1C(C)C` was 117 to 121 °C; that for `c1cc(C2CCCNC2)[nH]n1` (configuration not stated) was 74 to 76 °C; that for `CCCCCn1nc(C(=O)O)c2ccccc2c1=O` was 144 to 146 °C.

`O=[N+]([O-])c1ccc(Br)cc1F` showed a melting point of 86 to 88 °C. Compound `NS(=O)(=O)c1cccc(N2CC(C(=O)O)CC2=O)c1` (configuration not stated) gave a melting point of 168 to 170 °C. In the case of `CN1C(=O)CNC(=O)c2ccccc21`, the melting point lay within 175 to 177 °C. `Cc1nc[nH]c1C` registered a melting point of 103 to 105 °C. In turn, `O=C(CCl)N1CCCCCCC1` came in with a melting point of 66 to 68 °C.

Regarding `O=C(O)CNC(=O)c1c[nH]c(=O)[nH]c1=O`, the melting point was 301 to 303 °C. `Cc1ncsc1C(=O)NC1CCNCC1` showed a melting point of 136 to 138 °C. As for `N#Cc1ccc(C(=O)O)nc1`, the melting point was 210 to 215 °C.

`O=C(O)c1nn(-c2ccccc2)cc1OC(F)F`: the melting point lay in the range of 134 to 136 °C. Consider `CC(C)CCC1CCC(=O)NC1=O` (configuration not stated), for which the melting point lay within 117 to 119 °C. Regarding `ClCc1cc2c(cc1Cl)OCCCO2`, the melting point lay in the range of 55 to 57 °C. On to `COc1cc(C=O)ccc1OCC(=O)N1CCOCC1`, for which the melting point fell in the range of 98 to 100 °C. `Nc1nncc(-c2ccccc2OC(F)F)n1` gave a melting point of 159 to 161 °C. The compound `O=C(CCl)c1nnc(-c2ccccc2)o1` showed a melting point of 123 to 125 °C. `Cn1ccnc1-c1cc(N)on1` displayed a melting point of 178 to 180 °C.

Turning to `O=C(O)c1cccc(CN2C(=O)c3ccccc3C2=O)c1`, the melting point was in the range of 202 to 212 °C. Consider `CCn1c(C)cc(C(=O)CCl)c1C`, for which the melting point lay in the range of 89 to 91 °C. With `NCc1nnc2n1CCCCC2`, the melting point is 70 to 72 °C. The compound `CCS(=O)(=O)c1ccccc1N1CCC(N)CC1` showed a melting point of 119 to 121 °C. Turning to `Cc1cc(N)nn1-c1ccc(Cl)c(Cl)c1`, the melting point was 124 to 126 °C. The value for `Cc1cccc(NC(=O)C2CCCNC2)n1` (configuration not stated) was 124 to 126 °C; that for `CS(=O)(=O)c1nc2ccccc2s1` was 86 to 89 °C; that for `O=C(O)C1(c2cccc(Br)c2)CCCC1` was 158 to 160 °C. With `Nc1ccc(S(=O)(=O)NCC(F)(F)F)cc1`, the melting point lay within 128 to 130 °C.

The compound `Cc1cc(OCc2ccc(C(=O)NN)cc2)ccc1Cl` gave a melting point of 78 to 80 °C. With `COc1cc(OC)cc(C(=O)Nc2ccc(C(=O)O)c(O)c2)c1`, the melting point was in the range of 219 to 221 °C.

In turn, `Cc1ccc(N2CC(C(=O)O)CCC2=O)cc1C` (configuration not stated) returned a melting point of 184 to 186 °C.

The compound `CC(=O)c1ccc(OCCCC(=O)O)cc1` gave a melting point of 135 to 139 °C. The value for `CSC(=CC(=O)c1ccccc1)SC` was 92 to 94 °C; that for `CN(CC(=O)N1CCOCC1)C(=O)CCl` was 75 to 77 °C; that for `NCc1c[nH]nn1` was 211 to 213 °C. `O=C(O)C1CCCN(C(=O)c2ccc(Cl)c(Cl)c2)C1` (configuration not stated): the melting point was in the range of 163 to 165 °C. The compound `CCS(=O)(=O)N1CCC(C(=O)O)(c2ccccc2)CC1` showed a melting point of 203 to 205 °C. As for `NC(=O)CNC(=O)c1ccc(O)cc1`, the melting point fell in the range of 264 to 266 °C.

In the case of `NCc1cccc(N2CCOC2=O)c1`, the melting point was 93 to 95 °C. `ClCc1nc(-c2ccccc2Cl)no1` showed a melting point of 37 to 39 °C. Compound `O=c1[nH]c(-c2ccccn2)no1` had a melting point of 198 to 200 °C. Regarding `CCCOc1ccc2c(c1)OCC(C(=O)O)C2` (configuration not stated), the melting point is 139 to 141 °C. The compound `Cc1ccc2c(C3=CCNCC3)c[nH]c2c1` yielded a melting point of 178 to 180 °C.

Compound `CC(=O)c1ccc(OC2CCCCC2)c(F)c1` showed a melting point of 48 to 50 °C. Turning to `CC(=O)c1cnn(Cc2ccccc2)c1`, the melting point is 61 to 63 °C. Under `Cc1nccc(N)c1Cl` stands 110 to 112 °C; under `Cc1cccc2c(=O)[nH]c(CCl)nc12`, 190 to 192 °C. In turn, `O=C(O)c1ccc(Cn2cc(Br)cn2)o1` registered a melting point of 128 to 130 °C.

Turning to `CC(C(=O)O)N(C)C(=O)OCC1c2ccccc2-c2ccccc21` (configuration not stated), the melting point was 119 to 121 °C.

Consider `Cc1nn(-c2ccccc2)c(C)c1NC(=O)C(C)Cl` (configuration not stated), for which the melting point was 134 to 136 °C.

Compound `CC(C)C(=O)c1ccc(S(=O)(=O)Cl)cc1` gave a melting point of 64 to 66 °C. Take `Cc1nc(S)n(C2CC2)c1C`: the melting point lay in the range of 178 to 180 °C. `CCCOc1ccccc1C(N)=S` gave a melting point of 100 to 102 °C. The compound `Fc1ccc(NC2CCN(c3ccncc3)CC2)cc1` showed a melting point of 151 to 153 °C. For the compound `Cc1cc(C(=O)C=O)ccc1F`, the melting point lay in the range of 76 to 78 °C.

Take `O=C1OCCc2cnc3nc(C(F)(F)F)nn3c21`: the melting point was in the range of 185 to 187 °C. The compound `CC1CN(c2ccc(NC(=O)OCC(F)(F)F)cc2F)CC(C)O1` (configuration not stated) gave a melting point of 130 to 132 °C. Turning to `COc1ccc(C(N)Cc2ccc(F)cc2)cc1` (configuration not stated), the melting point lay within 47 to 49 °C. `Cc1ccc(-c2nc(N)sc2C)cc1` registered a melting point of 173 to 175 °C. As to `O=[N+]([O-])c1ccccc1CSc1ncccn1`, the melting point was 60 to 62 °C. `CCOCc1ccc(CNC(=O)CCl)cc1`: the melting point fell in the range of 86 to 88 °C. Turning to `O=C1C(Br)CCN1c1ccccc1` (configuration not stated), the melting point lay within 99 to 101 °C. The compound `Cc1cc(Cl)nc(-c2cccc([N+](=O)[O-])c2)n1` returned a melting point of 147 to 149 °C. Turning to `CC(C)(C)OC(=O)NC1CCCCCC1O` (configuration not stated), the melting point is 85 to 87 °C. Under `CNc1ccc([N+](=O)[O-])c2nonc12` stands 257 to 259 °C. With `CC(C)(C)c1ccc(C(O)CCC(=O)O)cc1` (configuration not stated), the melting point lay within 127 to 129 °C.
